Laboratory results as given in PubChem BioAssay (NCI).
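Tested at 5 concentrations; 48 h exposure; 96-well plates; endpoints linearly interpolated, else capped at highest concentration. TGI marks complete inhibition of growth.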

Key:
Assay in all cases: growth of human tumour cells (NCI), 48 h
M14 melanoma = tested on: M14 melanoma
OVCAR-5 ovarian = tested on: OVCAR-5 ovarian
TK-10 renal = tested on: TK-10 renal
MDA-N = tested on: MDA-N
786-0 renal = tested on: 786-0 renal
SK-OV-3 ovarian = tested on: SK-OV-3 ovarian
NCI/ADR-RES ovarian = tested on: NCI/ADR-RES ovarian
HCT-15 colon = tested on: HCT-15 colon
RXF 393 renal = tested on: RXF 393 renal
UACC-257 melanoma = tested on: UACC-257 melanoma
SK-MEL-5 melanoma = tested on: SK-MEL-5 melanoma

Measured: TGI

CC(C)=CC(=O)c1[nH]c2ccccc2c1CC(=O)NCCc1cnc[nH]1
> 100 µM: all assays above

O=C(NCC(O)COc1ccccc1)c1ccccc1O (stereo not drawn)
> 100 µM: all assays above

O=C1OCOC2(CCCC2)C1c1ccccc1 (stereo not drawn)
> 100 µM: all assays above
